Data set [1] has as its system sEH. The data set is classed as in vivo, mouse (sEH-KO, C57BL/6). The following applies: baseline.
Data set [2] in a line: Baseline regional brain biodistribution of ^18F-FNDP in CD-1 mice. The data set is classed as in vivo, mouse (CD-1). The following applies: IV, mean ± SD, n=3.
The nature of data set [3]: Radiometabolite analysis of baboon arterial blood/plasma by RP-HPLC. The data set is classed as in vivo, Papio anubis (baboon). The following applies: 90 min post-injection.
For data set [4], the system named is sEH. Description: Dynamic PET imaging of baboon brain, baseline and blocking with nor-fluoro-FNDP. It is filed as in vivo, Papio anubis (baboon).
For data set [5], the target named is T1, sEH (Mus musculus, UniProt P34914).
T1 sequence (P34914 1-554): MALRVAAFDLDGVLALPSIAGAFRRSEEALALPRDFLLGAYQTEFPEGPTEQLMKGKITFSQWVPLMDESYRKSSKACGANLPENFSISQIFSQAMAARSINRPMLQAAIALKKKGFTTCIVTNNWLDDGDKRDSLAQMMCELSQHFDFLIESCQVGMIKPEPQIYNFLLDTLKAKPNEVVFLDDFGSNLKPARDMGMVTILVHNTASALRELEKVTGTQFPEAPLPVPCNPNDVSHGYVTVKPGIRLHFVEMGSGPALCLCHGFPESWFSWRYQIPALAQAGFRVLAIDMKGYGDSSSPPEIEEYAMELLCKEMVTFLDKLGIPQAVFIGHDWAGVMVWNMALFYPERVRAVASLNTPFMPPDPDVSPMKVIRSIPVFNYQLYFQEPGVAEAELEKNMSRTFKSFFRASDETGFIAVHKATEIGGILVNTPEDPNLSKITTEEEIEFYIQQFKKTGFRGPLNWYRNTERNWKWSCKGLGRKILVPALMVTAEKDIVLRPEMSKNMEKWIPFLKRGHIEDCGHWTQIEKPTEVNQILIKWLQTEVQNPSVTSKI
The data set is classed as in vivo, mouse (CD-1). To be noted: CD-1 mouse brain, high dose of blocker nor-fluoro-FNDP.

Another data set has as its system human sEH. The following applies: read-out: human IC50; cited from earlier work.

SMILES strings stand for the structures. Several values for one entry are separate records, joined by “and”; a condition that tells them apart may be missing. Equal values may be shown once. Some results are limits rather than exact numbers.

Turning to `O=C(NCCC(c1ccccc1)c1ccccc1)c1ccc([18F])nc1` [^18F-FNDP, N-(3,3-diphenylpropyl)-6-^18F-fluoronicotinamide], the “Regional uptake in striatum, hippocampus and cortex” value in the data set with sEH [1] (C57BL6 control mice, 60 min post-injection) is ~ 1 %ID/g. In addition, the “Reduction of uptake in sEH-KO mice as compared with controls” value in the data set with sEH [1] (60 min after radiotracer injection) is ~ 90%. Also, in data set [2] (5 min), the “Regional brain uptake, cortex” value was 4.69 ± 0.21 %ID/g tissue; the “Regional brain uptake, hippocampus” value is listed as 3.29 ± 0.54 %ID/g tissue; the “Regional brain uptake, hypothalamus” value is 2.59 ± 0.18 %ID/g tissue; the “Regional brain uptake, rest of brain” value is 3.53 ± 0.11 %ID/g tissue. The “Regional brain uptake, striatum” value in data set [2] (5 min) was determined as 5.24 ± 0.45 %ID/g tissue. Moreover, in data set [2] (15 min), the “Regional brain uptake, cerebellum” value is 1.31 ± 1.01 %ID/g tissue; the “Regional brain uptake, cortex” value is on record as 2.92 ± 0.36 %ID/g tissue; the “Regional brain uptake, hippocampus” value is listed as 2.51 ± 0.34 %ID/g tissue; the “Regional brain uptake, hypothalamus” value turned out to be 1.66 ± 0.28 %ID/g tissue. Moreover, in data set [2] (15 min), the “Regional brain uptake, rest of brain” value is given as 2.37 ± 0.34 %ID/g tissue and the “Regional brain uptake, striatum” value is reported as 3.29 ± 0.36 %ID/g tissue. Moreover, in data set [2] (30 min), the “Regional brain uptake, cerebellum” value stood at 1.09 ± 0.16 %ID/g tissue; the “Regional brain uptake, cortex” value came to 2.07 ± 0.05 %ID/g tissue; the “Regional brain uptake, hippocampus” value is recorded as 1.76 ± 0.15 %ID/g tissue; the “Regional brain uptake, hypothalamus” value was 1.04 ± 0.08 %ID/g tissue. In data set [2] (30 min), the “Regional brain uptake, rest of brain” value is given as 1.64 ± 0.06 %ID/g tissue and the “Regional brain uptake, striatum” value is given as 2.32 ± 0.15 %ID/g tissue. Further, in data set [2] (60 min), the “Regional brain uptake, cerebellum” value worked out at 0.52 ± 0.07 %ID/g tissue; the “Regional brain uptake, cortex” value is reported as 0.87 ± 0.14 %ID/g tissue; the “Regional brain uptake, hippocampus” value is given as 0.81 ± 0.15 %ID/g tissue; the “Regional brain uptake, hypothalamus” value is listed as 0.51 ± 0.07 %ID/g tissue. In data set [2] (60 min), the “Regional brain uptake, rest of brain” value was found to be 0.71 ± 0.10 %ID/g tissue and the “Regional brain uptake, striatum” value stood at 1.07 ± 0.14 %ID/g tissue. In data set [2] (90 min), the “Regional brain uptake, cerebellum” value is given as 0.29 ± 0.04 %ID/g tissue; the “Regional brain uptake, cortex” value is on record as 0.45 ± 0.05 %ID/g tissue; the “Regional brain uptake, hippocampus” value was 0.43 ± 0.06 %ID/g tissue; the “Regional brain uptake, hypothalamus” value came out at 0.31 ± 0.05 %ID/g tissue. In data set [2] (90 min), the “Regional brain uptake, rest of brain” value was determined as 0.38 ± 0.04 %ID/g tissue and the “Regional brain uptake, striatum” value is 0.54 ± 0.07 %ID/g tissue. In addition, the “Remaining parent compound in plasma radioactivity” value in data set [3] was 20% and ~ 20%. The “Blockade in all brain regions” value with sEH [4] (baboon PET) stood at 95%. In the data set on sEH [4] (baboon, baseline, Logan method), the “VT in cerebellum (average)” value is 7.9 ± 1.0; the “VT in frontal/temporal gyrus and hippocampus” value is on record as > 10.1; the “VT in globus pallidus, corpus callosum, white matter, hypothalamus and thalamus” value is recorded as > 8.1; the “VT in insula, putamen, caudate and amygdala” value is recorded as > 11.5. In addition, the “Specificity of sEH radiolabeling” value with sEH [4] (both animal species (mouse and baboon)) is recorded as “up to 95%”. Also, the “Specific (blocked) binding in striatum, hippocampus and cortex” value on sEH [5] worked out at 90%.

For the molecule `O=C(NCCC(c1ccccc1)c1ccccc1)c1cccnc1` [nor-fluoro-FNDP, N-(3,3-diphenylpropyl)-nicotinamide], in the data set with human sEH, the IC50 was […].

The term IC50 denotes the midpoint of a concentration-inhibition curve.

Source of the values: article PMC5095511 (Journal of nuclear medicine : official publication, Society …, 2016).
